We go through 88 compounds from a melting point compilation (Tetko et al.; mined from patent text by program, amines drawn as free bases though some values may be those of a salt).

Some results are limits rather than exact numbers.

The melting point is the temperature, or range, at which the solid turns liquid. Consider `C=C(Cc1c(Cl)cccc1Cl)C(=O)O`, for which the melting point turned out to be 132 °C.

For `CCOP(=O)(OCC)C(O)c1cccc(F)c1` (stereo not drawn), the melting point was in the range of 81 to 82 °C. As for `Cc1cc(S(=O)(=O)N(CC(N)=O)c2ccc(Cl)cc2Cc2cc(F)ccc2F)c(C)cc1Cl`, the figure is 170 °C; as for `C1CC1Nc1nc(NC2CC2)nc(NC2CC2)n1`, 75 to 77 °C. Then `COC1=CC2=CCC3C(=CCC4(C)C(=O)CCC34)C2(C)CC1` (stereo not drawn), with 153 °C; and `N#CN=C(NCCO)NCc1ccc(-c2csc(N=C(N)N)n2)o1`, with 208 to 209 °C; and `O=C1c2ccccc2C(=O)c2c1c(Br)n1c2Cc2ccccc2C1`, with > 320 °C. On to `CCN1c2ncc(CCc3ccncc3)cc2C(=O)N(C)c2ccc(C#N)nc21`, for which the melting point fell in the range of 149 to 150 °C. As for `CC1(CN2CCN(Cc3ccccc3)C2=O)Cn2cc([N+](=O)[O-])nc2O1` (stereo not drawn), the figure is 180 to 181 °C; as for `CC(=O)OC(CS(=O)(=O)CC(OC(C)=O)c1ccc(N)cc1)c1ccc(N)cc1` (stereo not drawn), 92 to 93 °C. Then `CNS(=O)(=O)CCc1ccc2[nH]cc(CC(=O)O)c2c1`, with 123 to 125 °C. As for `COc1c(O)c(C)c(CN2CCOCC2)c(O)c1OC`, the figure is 127 to 130 °C; as for `COc1ccc(S(=O)(=O)Nc2ccc(Cl)c(OCCN(C)C)c2)cc1OC`, 103 to 106 °C; as for `COc1ccc(Sc2ccc3c(c2)CC[C@H]2NC(=O)CC[C@]32C)cc1`, 194 to 196 °C. The compound `CC(C)[C@]1(CO)CCC(C)(C)C(=O)O1` had a melting point of 178 to 181 °C. `CCOc1ccc2c(c1)n(C13CC4CC(CC(C4)C1)C3)c(=O)n2S(=O)(=O)c1ccc(N)cc1OC` yielded a melting point of 248 °C.

Turning to `O=C1NC(=O)C2=C1c1c([nH]c3ccccc13)Cc1[nH]c3ccccc3c12`, the melting point is > 350 °C. Regarding `Cc1cc(C(=O)CCc2cc(-c3ccc(C(F)(F)F)cc3)nn2CC2CC2)ccc1OC(C)(C)C(=O)O`, the melting point lay within 55 to 60 °C.

The compound `COc1ccc(CNC(=O)c2ccccc2)cc1` had a melting point of 98 to 99 °C.

The compound `O=c1c(C2=Nc3ccccc3S(=O)(=O)N2)c(O)c2ccccc2n1CC1CCCC1` registered a melting point of 255 to 256 °C. Consider `CC(C)=COc1ccc2c(C)cc(=O)oc2c1C(=O)C=Cc1cccnc1`, for which the melting point is 156 to 157 °C. In turn, `Cc1cc(Cl)nn2c(-c3ccnc4c3ccn4S(=O)(=O)c3ccccc3)c(-c3ccc(F)cc3)nc12` registered a melting point of 226 to 228 °C. As for `CC(C)(C)c1ccc(CC(=O)CCCl)cc1`, the figure is 46 to 49 °C; as for `CC(=O)Nc1nc(N)nc(C2CCC(c3ccccc3)CC2)n1` (stereo not drawn), > 260 °C; as for `Clc1nc(SCc2cccc3ccccc23)nc2c1CCN2`, 107 to 110 °C.

In turn, `CCCCCCCCCCCCCCCCCCOCC(CBr)OCCCCCCCCCCCCCCCCCC` (stereo not drawn) showed a melting point of 38 to 38.8 °C. As for `COCc1cc(-c2ncc(C(F)(F)F)cc2Cl)ccc1Cl`, the figure is 52 to 54 °C. Take `CCCCOc1ccc(S(=O)(=O)C2(C(=O)O)CCN(Cc3cccc(Oc4ccccc4)c3)CC2)cc1`: the melting point was determined as 92.5 °C. As for `CN(C)c1ccccc1CSc1nccc(=O)[nH]1`, the figure is 156 to 158 °C; as for `CS(=O)(=O)c1csc(C(=O)C2C(=O)N(C(N)=O)c3ccc(Cl)cc32)c1` (stereo not drawn), 228 to 230 °C.

`COC(=O)C1=C(C)NC(C)=C(C(=O)OC)C1c1cccc(NC(=NC#N)N(C)CCCN2CCC(c3ccccc3)CC2)c1` had a melting point of 135 to 145 °C. Then `COc1c2c(c(OC)c(OC)c1OC)CCC(CCn1nnc3ccccc31)CC2`, with 99 to 101 °C; and `CCOC(=O)NNC(=O)NCC(=O)OC`, with 116 to 121 °C. As for `O=c1oc2ccc(Cl)cc2c(O)c1CCCOc1ccccc1`, the melting point was in the range of 162 to 163 °C. In turn, `CC12CC=C3c4ccc(O)cc4CCC3C1CCC2=O` (stereo not drawn) registered a melting point of 250 to 255 °C. Then `Cc1nccn1-c1nc(-c2ccc(Cl)cc2)c(CCC(=O)NCCCl)o1`, with 155 to 156 °C; and `O=S(=O)(c1ccccc1)c1ncc(F)cn1`, with 105 °C; and `COC(=O)Cc1ccccc1N(Cc1ccc(C)cc1)c1c(Cl)cccc1Cl`, with 113 to 114 °C. `COC(=O)CN(c1ccccc1)c1ccc(OC)cc1C(=O)OC` displayed a melting point of 85 to 87 °C.

Compound `CCOC(=O)c1c(CCl)nc2ccc(C)cc2c1-c1ccc(OC)c(OC)c1` showed a melting point of 125 to 126 °C. The compound `CC(C)NCC(O)COc1ncccc1Cl` (stereo not drawn) yielded a melting point of 71 to 73 °C. Then `O=[N+]([O-])c1cc(Cl)c(Cl)cc1NC1CCC(O)C1O` (stereo not drawn), with 134 to 136 °C; and `Cc1ccc2c(c1)c(Sc1ccc(Cl)cc1)c(C)n2CC(=O)O`, with 219 to 221 °C; and `Cc1cc(-c2ccc(C(F)(F)F)cc2)cc(-c2ccnc(-c3ccc(S(N)(=O)=O)s3)c2)n1`, with > 250 °C. Regarding `CCCc1cc(-c2cccs2)n[nH]c1=O`, the melting point was 171 to 174 °C. As for `Oc1ccc2nc(-c3ccc(O)c(O)c3)oc2c1`, the figure is 282 to 284 °C.

For the compound `Cc1nc2ccccc2n2cnc(C(=O)OC(C)C)c12`, the melting point is 182 to 183 °C. As for `Cc1cc(C2(C(F)(F)F)CC(c3ccc(F)cc3)=NO2)ccc1NC(=O)c1cccc(I)c1C(=O)NC(C)C` (stereo not drawn), the figure is 128 to 130 °C; as for `COc1cc(C(=O)NS(=O)(=O)c2ccccc2C)ccc1Cc1c(Cl)n(C)c2ccc(CCNC(=O)N(C)C)cc12`, 222 to 224 °C; as for `COc1cnc(NS(=O)(=O)c2cccc(Cl)c2Cl)c(OC)n1`, 138 to 139 °C. The compound `CCOC(=O)C(=O)Nc1cc(OC)c(OC)cc1[N+](=O)[O-]` came in with a melting point of 163 °C. Then `O=C(OC1CCCCC1)c1ncn2c1[C@@H]1CCCN1C(=O)c1c-2ccc(F)c1Cl`, with 163 to 166 °C; and `CCOC(=O)c1c(O)c2cc(OCc3ccccc3)ccc2c(=O)n1CC(C)C`, with 92 to 93 °C; and `Cc1cc2c(c3c1NC(=O)CC3)OC(CN)C2` (stereo not drawn), with > 300 °C. Then `CNS(=O)(=O)c1cc2c(c(C(=O)NCC3CCN(C)C3)c1)OCCO2` (stereo not drawn), with 187 to 188 °C; and `O=C(c1ccc(Oc2ccccc2)cc1)c1ccc(C(=O)c2ccc(Oc3ccccc3)cc2)cc1`, with 212 to 214 °C; and `O=C(NC1CCC1)c1ccc(F)c2c1CC(N(CCCc1c[nH]c3ccc(F)cc13)C1CCC1)CO2` (stereo not drawn), with 135 °C. For the compound `Cc1cc(-c2[nH]c3ccc([N+](=O)[O-])cc3c2C)cc(C)c1O`, the melting point was 229 to 231 °C. `Cc1ccc(C#N)cc1Cl` yielded a melting point of 46.5 to 47.5 °C.

As for `COc1cc2c3c(n(Cc4ccccc4)c(=O)c2cc1OC)-c1cc2c(cc1C3=O)OCO2`, the melting point is 310 to 312 °C. Then `Cn1cc(C=CC(=O)NO)c([N+](=O)[O-])n1`, with 172 to 174 °C. In turn, `Cc1ccc(COn2c(C)c(C(C)C(=O)O)c3cc4c(cc32)OCO4)cc1` (stereo not drawn) gave a melting point of 172 to 175 °C.

`CN(C(CCN1C(=O)c2ccccc2C1=O)C(=O)NO)S(=O)(=O)c1ccc(Oc2cccc(Cl)c2)cc1` (stereo not drawn) gave a melting point of 81 to 84 °C.

As for `COc1ccc(C2=C(CC(C)N)C(=O)NCCC2)cc1` (stereo not drawn), the melting point fell in the range of 131 to 133 °C. Consider `CCCCCCOc1ccc2cc(OCCCCCC)ccc2c1`, for which the melting point lay in the range of 78 to 79 °C. As for `CN(C)CCCOc1ccc(C[C@H](NC(=O)[C@@H]2CCCN2S(=O)(=O)c2cc(Cl)sc2Cl)C(=O)O)cc1`, the figure is > 200 °C; as for `CN1Cc2c(Cl)ccc3scc(c23)S1(=O)=O`, 196 °C. As for `CCOC(=O)c1ccc(-c2csc(-c3ccc(Cl)cc3)n2)cc1`, the figure is 105 to 106 °C. In the case of `COc1ccccc1NC(=O)Nc1ccc(N2CCN(C(=O)Nc3ccc(OCCO)cc3Cl)CC2)c(Cl)c1`, the melting point fell in the range of 173 to 175 °C. For the compound `CCCCC(=O)c1c(C)nc2cc(OC)c(OC)cc2c1-c1ccc(OC)c(OC)c1`, the melting point lay within 119 to 120 °C. Then `O=C1NC(=Cc2cccc(Cl)c2Cl)C(=O)C1=NO`, with 180 °C. Then `CCOC(=O)C1CCc2[nH]c3ccc(OC(F)(F)F)cc3c2C1` (stereo not drawn), with 131 to 132 °C; and `C[Si](C)(C)c1sccc1NC=O`, with 74 to 76 °C; and `Fc1ccccc1OCc1ccc2ccccc2n1`, with 84 to 86 °C. For the compound `CCCCc1c(C(=O)OCC)cc(Oc2nnnn2-c2ccccc2)c2c(OC)cccc12`, the melting point is 144 to 146 °C. Take `Cc1noc(NS(=O)(=O)c2ccsc2C(=O)NS(=O)(=O)c2cccc3c(N(C)C)cccc23)c1Br`: the melting point fell in the range of 184 to 186 °C. On to `C[C@@H]1Cc2cc3c(cc2C(c2ccc(N)cc2)=NN1c1ccccn1)OCO3`, for which the melting point fell in the range of 128 to 130 °C. As for `NNc1nc2cc(Cl)c(Cl)cc2nc1Cl`, the figure is < 260 °C. Then `Oc1cccnc1Cc1cccc(Br)c1`, with 160 to 162 °C; and `Nc1c(-c2ccc(Cl)cc2Cl)nnn1Cc1ccc(S(N)(=O)=O)cc1`, with 204 to 206 °C. As for `CC1(C)Oc2c(N)c(Cl)cc(Cl)c2C1=O`, the figure is 168 to 170 °C. As to `O=c1[nH]c2cc(F)c(F)cc2c(=O)n1OCc1ccccc1`, the melting point is > 250 °C.

Consider `CC(C)c1cc(Cl)cc(C(C)C)c1NC(=O)NS(=O)(=O)c1cc(C2(C)OCCO2)ccc1F`, for which the melting point was 168 to 170 °C. `CCc1cn(C2OC(CNC(=O)C(C)Oc3c(Cl)cc(Cl)c(OC)c3Cl)C(OC(=O)C(NC(=O)OC(C)(C)C)C(C)C)C2F)c(=O)[nH]c1=O` (stereo not drawn) displayed a melting point of 147 to 149 °C.

`Nc1ccnc(-c2nnn(Cc3cc(C(F)(F)F)cc(C(F)(F)F)c3)c2-c2ccccc2)c1C(=O)c1ccccc1Cl` showed a melting point of 156 °C. Compound `CCCCCCCCC(=O)N1C(=O)CCC1=O` returned a melting point of 59 to 60 °C. Take `CN1CCc2cc(O)c(O)c(Sc3cccs3)c2CC1`: the melting point was 189 to 191 °C. `CC(=O)Nn1cnc2c(Br)csc2c1=O` returned a melting point of 273 °C.
